ChEMBL document CHEMBL2401687, “Hypoxia induced CA9 inhibitory targeting by two different sulfonamide derivatives including acetazolamide in human glioblastoma” (Bioorg Med Chem, 2013)
Activity calls are given as the source filed them. The rule behind the calls is not given here.

Tests used:
GAMG [1] = assay: Inhibition of carbonic anhydrase 9 protein expression in human GaMG cells under hypoxic conditions at 500 nM treated prior to hypoxic-challenge by Western blotting analysis; assay type: functional, cell-based
U-87 MG [2] = assay: Inhibition of carbonic anhydrase 9 mRNA expression in human U87MG cells under hypoxic conditions at 500 nM treated prior to hypoxic-challenge by RT-PCR analysis; assay type: functional, cell-based; settings: U-87MG ATCC
U-251 [3] = assay: Inhibition of carbonic anhydrase 9 mRNA expression in human U251 cells under hypoxic conditions at 500 nM treated prior to hypoxic-challenge by RT-PCR analysis; assay type: functional, cell-based
U-373MG ATCC [4] = assay: Inhibition of carbonic anhydrase 9 mRNA expression in human U373 cells under hypoxic conditions at 500 nM treated prior to hypoxic-challenge by RT-PCR analysis; assay type: functional, cell-based
GAMG [5] = assay: Inhibition of carbonic anhydrase 9 mRNA expression in human GaMG cells under hypoxic conditions at 400 nM treated prior to hypoxic-challenge by RT-PCR analysis; assay type: functional, cell-based
[6] = Inhibition of carbonic anhydrase 9 protein expression in human U87MG cells under hypoxic conditions at 500 nM treated prior to hypoxic-challenge by Western blotting analysis; assay type: functional, cell-based; settings: U-87MG ATCC
U-251 [7] = assay: Inhibition of carbonic anhydrase 9 protein expression in human U251 cells under hypoxic conditions at 500 nM treated prior to hypoxic-challenge by Western blotting analysis; assay type: functional, cell-based
[8] = Inhibition of carbonic anhydrase 9 protein expression in human U373 cells under hypoxic conditions at 500 nM treated prior to hypoxic-challenge by Western blotting analysis; assay type: functional, cell-based; settings: U-373MG ATCC
U-373MG ATCC [9] = settings: Homo sapiens
Description: Inhibition of carbonic anhydrase 9 mRNA expression in human U373 cells under hypoxic conditions at 4500 nM treated prior to hypoxic-challenge followed by compound addition 12 hrs after first treatment by RT-PCR analysis

U-87 MG [10] = settings: Homo sapiens; U-87MG ATCC
Description: Inhibition of carbonic anhydrase 9 mRNA expression in human U87MG cells under hypoxic conditions at 5000 nM treated prior to hypoxic-challenge followed by compound addition 12 hrs after first treatment by RT-PCR analysis

SMILES	inhibition (GAMG [1])	inhibition (U-87 MG [2])	inhibition (U-251 [3])	inhibition (U-373MG ATCC [4])	inhibition (GAMG [5])	inhibition [6]	inhibition (U-251 [7])	inhibition [8]	inhibition (U-373MG ATCC [9])	inhibition (U-87 MG [10])
CN1C(=O)[C@]2(Cc3cn([C@]45C[C@@]67SS[C@@](CO)(C(=O)N6[C@H]4Nc4ccccc45)N(C)C7=O)c4ccccc34)SS[C@@]1(CO)C(=O)N2C	Active	Active	Active	Active	Active	inactive	inactive	inactive	–	–
CC(=O)Nc1nnc(S(N)(=O)=O)s1	–	–	–	–	–	–	–	–	Active	Active
